Laboratory results published in paper PMC8310135 (Viruses, 2021).
Structures can show the parent of a compound that is named as a salt. Where two headings read alike, the source gives them in different places.

Legend:
in vitro = conditions: human; for CC50: CC50 (50% cell cytotoxicity concentration)
rLUJV/ZsG = assay: microbe, parasite or virus in culture; type: cell-based, Lujo virus
[1] = Mammarenavirus lujoense, Huh-7, 50 nM, read-out: Relative ZsG (%) Mean
[2] = Mammarenavirus lujoense, Huh-7, 500 nM, read-out: Relative ZsG (%) Mean
[3] = Mammarenavirus lujoense, Huh-7, 5000 nM, read-out: Relative ZsG (%) Mean
[4] = Mammarenavirus lujoense, Huh-7, read-out: Relative ZsG (%) Mean
[5] = Mammarenavirus lujoense, Huh-7, read-out: EC50 (concentration inhibiting ZsG expression by 50%)
[6] = read-out: EC50 (concentration inhibiting ZsG expression by 50%)

SMILES | viability at 0.05 µM (in vitro) [%] | viability at 0.5 µM (in vitro) [%] | viability at 5 µM (in vitro) [%] | activity at 0.05 µM (rLUJV/ZsG; [1]) [%] | activity at 0.5 µM (rLUJV/ZsG; [2]) [%] | activity at 5 µM (rLUJV/ZsG; [3]) [%] | activity at 0.05 µM (rLUJV/ZsG; [4]) [%] | activity at 0.5 µM (rLUJV/ZsG; [4]) [%] | activity at 5 µM (rLUJV/ZsG; [4]) [%] | CC50 (in vitro) [µM] | SI (selectivity index, CC50 divided by EC50) (rLUJV/ZsG) | EC50 (rLUJV/ZsG; [5]) [µM] | EC50 (rLUJV/ZsG; [6]) [µM]
OC(CNCC(O)C1CCc2cc(F)ccc2O1)C1CCc2cc(F)ccc2O1 (centres unmarked) [Nebivolol] | 110 | 108 | 76 | 76 | 58 | 18 | – | – | – | – | – | – | –
CC(C)(C)c1nc(-c2cccc(NS(=O)(=O)c3c(F)cccc3F)c2F)c(-c2ccnc(N)n2)s1 [Dabrafenib] | 119 | 117 | 68 | 87 | 79 | 22 | – | – | – | – | – | – | –
COc1c(-c2ccc3cc(NS(C)(=O)=O)ccc3c2)cc(-n2ccc(=O)[nH]c2=O)cc1C(C)(C)C [ABT-333] | 99 | 96 | 104 | 131 | 111 | 129 | – | – | – | – | – | – | –
Cc1cn([C@H]2C=C[C@@H](CO)O2)c(=O)[nH]c1=O [Stavudine] | 101 | 98 | 103 | 125 | 104 | 96 | – | – | – | – | – | – | –
O=c1c(-c2ccc(O)cc2)coc2cc(O)cc(O)c12 [Genistein] | 123 | 111 | 106 | 83 | 68 | 92 | – | – | – | – | – | – | –
O=c1[nH]c(=O)n([C@@H]2O[C@H](CO)[C@@H](O)[C@H]2O)cc1Cl [5-chlorouridine] | 100 | 103 | 99 | 122 | 142 | 103 | – | – | – | – | – | – | –
Cc1cn([C@H]2C[C@H](N=[N+]=[N-])[C@@H](CO)O2)c(=O)[nH]c1=O [Zidovudine] | 97 | 105 | 93 | 99 | 88 | 92 | – | – | – | – | – | – | –
CN(C)CCCN1c2ccccc2CCc2ccc(Cl)cc21 [Clomipramine HCL] | 97 | 97 | 98 | 129 | 103 | 12 | – | – | – | – | – | – | –
[N-]=[N+]=Nc1cn([C@@H]2O[C@H](CO)[C@@H](O)[C@H]2O)c(=O)[nH]c1=O [5-azidouridine] | 104 | 100 | 104 | 121 | 119 | 113 | – | – | – | – | – | – | –
O=c1cnn([C@@H]2O[C@H](CO)[C@@H](O)[C@H]2O)c(=S)[nH]1 [6-aza-2-thiouridine] | 104 | 96 | 103 | 134 | 139 | 112 | – | – | – | – | – | – | –
Nc1ncn([C@@H]2O[C@H](CO)[C@@H](O)[C@H]2O)c(=O)n1 [5-azacytidine] | 96 | 102 | 102 | 90 | 112 | 104 | – | – | – | – | – | – | –
CC(C)(C)C(=O)OCOP(=O)(COCCn1cnc2c(N)ncnc21)OCOC(=O)C(C)(C)C [Adefovir dipivoxil] | 123 | 94 | 54 | 70 | 38 | 24 | – | – | – | – | – | – | –
O=c1cnn([C@@H]2O[C@H](CO)[C@@H](O)[C@H]2O)c(=O)[nH]1 [6-azauridine] | 98 | 103 | 97 | 95 | 87 | 78 | – | – | – | – | – | – | –
O=c1[nH]c(=O)n([C@@H]2O[C@H](CO)[C@@H](O)[C@H]2O)cc1Br [5-bromouridine] | 97 | 102 | 100 | 134 | 131 | 106 | – | – | – | – | – | – | –
COc1ccc(-c2ccc3c(N4CCOC[C@@H]4C)nc(N4CCOC[C@@H]4C)nc3n2)cc1CO [AZD8055] | 86 | 52 | 45 | 48 | 7 | 3 | – | – | – | – | – | – | –
Cc1ccc(NC(=O)c2ccc(CN3CCN(C)CC3)cc2)cc1Nc1nccc(-c2cccnc2)n1 [Gleevec] | 101 | 96 | 96 | 95 | 113 | 56 | – | – | – | – | – | – | –
COc1cc2ncnc(Nc3cccc(Cl)c3)c2cc1OC [Tyrphostin AG1478] | 120 | 101 | 111 | 80 | 73 | 87 | – | – | – | – | – | – | –

SMILES | viability at 0.05 µM (in vitro) [%] | viability at 0.5 µM (in vitro) [%] | viability at 5 µM (in vitro) [%] | activity at 0.05 µM (rLUJV/ZsG; [1]) [%] | activity at 0.5 µM (rLUJV/ZsG; [2]) [%] | activity at 5 µM (rLUJV/ZsG; [3]) [%] | activity at 0.05 µM (rLUJV/ZsG; [4]) [%] | activity at 0.5 µM (rLUJV/ZsG; [4]) [%] | activity at 5 µM (rLUJV/ZsG; [4]) [%] | CC50 (in vitro) [µM] | SI (selectivity index, CC50 divided by EC50) (rLUJV/ZsG) | EC50 (rLUJV/ZsG; [5]) [µM] | EC50 (rLUJV/ZsG; [6]) [µM]
CCOC(=O)c1c(CSc2ccccc2)n(C)c2cc(Br)c(O)c(CN(C)C)c12 [Arbidol] | 135 | 139 | 109 | 77 | 65 | 40 | – | – | – | – | – | – | –
Clc1ccc(CSC(Cn2ccnc2)c2ccc(Cl)cc2Cl)cc1 (centres unmarked) [Sulconazole nitrate] | 132 | 131 | 52 | 86 | 66 | 42 | – | – | – | – | – | – | –
Clc1ccc(COC(Cn2ccnc2)c2ccc(Cl)cc2Cl)c(Cl)c1 (centres unmarked) [Miconazole nitrate] | 119 | 120 | 67 | 65 | 78 | 47 | – | – | – | – | – | – | –
CN1CCC[C@@H]1CCO[C@](C)(c1ccccc1)c1ccc(Cl)cc1 [Clemastine fumarate] | 115 | 116 | 107 | 95 | 81 | 6 | – | – | – | – | – | – | –
CO[C@@H]1[C@H](O)[C@@H](CO)O[C@H]1n1ccc(N)nc1=O [2ʹ-O-methylcytidine] | 98 | 103 | 100 | 118 | 127 | 114 | – | – | – | – | – | – | –
CNCC[C@H](Oc1cccc2ccccc12)c1cccs1 [Duloxetine HCL] | 104 | 109 | 76 | – | – | – | 103 | 74 | 4 | – | – | – | –
C#Cc1cccc(Nc2ncnc3cc(OCCOC)c(OCCOC)cc23)c1 [Erlotinib] | 127 | 126 | 110 | 82 | 66 | 65 | – | – | – | – | – | – | –
CN(C)C(=O)C(CCN1CCC(O)(c2ccc(Cl)cc2)CC1)(c1ccccc1)c1ccccc1 [Loperamide HCL] | 99 | 104 | 85 | 104 | 81 | 1 | – | – | – | 12.3 ± 3.57 | 3.3 | 3.67 ± 0.99 | 3.67 ± 0.986
O=C1C=CN([C@@H]2O[C@H](CO)[C@@H](O)[C@H]2O)C(=O)C1 [3-deazauridine] | 103 | 96 | 99 | 108 | 105 | 111 | – | – | – | – | – | – | –
CN(C)CCOc1ccc(/C(=C(/CCCl)c2ccccc2)c2ccccc2)cc1 [Toremifene citrate] | 122 | 128 | 93 | 86 | 88 | 9 | – | – | – | 10.9 ± 3.14 | 2.6 | 4.22 ± 0.78 | 4.22 ± 0.778
CO[C@@H]1[C@H](O)[C@@H](CO)O[C@H]1n1ccc(=O)[nH]c1=O [2ʹ-O-methyluridine] | 97 | 100 | 96 | 122 | 130 | 110 | – | – | – | – | – | – | –
Cc1c(F)cc(C(=O)NC2CC2)cc1-c1ccc(C(=O)NCC(C)(C)C)cn1 [Losmapimod] | 113 | 115 | 114 | 60 | 70 | 63 | – | – | – | – | – | – | –
O=c1[nH]c(=O)n([C@@H]2O[C@H](CO)[C@@H](O)[C@H]2O)cc1F [5-fluorouridine] | 97 | 100 | 103 | 94 | 51 | 19 | – | – | – | – | – | – | –
CC(C)C(=O)OC[C@@]1(N=[N+]=[N-])O[C@@H](n2ccc(N)nc2=O)[C@H](OC(=O)C(C)C)[C@@H]1OC(=O)C(C)C [Balapiravir (R1626), Balapiravir] | 104 | 104 | 99 | 139 | 81 | 122 | – | – | – | – | – | – | –
[N-]=[N+]=Nc1nc2c(N)ncnc2n1[C@@H]1O[C@H](CO)[C@@H](O)[C@H]1O [8-azidoadenosine] | 104 | 87 | 32 | 90 | 72 | 6 | – | – | – | – | – | – | –
COC(=O)C1=C(C)NC(C)=C(C(=O)OC2CCCN(Cc3ccccc3)C2)C1c1cccc([N+](=O)[O-])c1 (centres unmarked) [Benidipine] | 126 | 129 | 107 | 90 | 81 | 61 | – | – | – | – | – | – | –
